From patent US11998544B2, “Methods of using splicing modulators” (EISAI R&D MANAGEMENT CO., LTD., priority 2018, dated 2024)

Key:
CT26 syngeneic tumors = assay: Efficacy study, mouse colon cancer syngeneic model (CT26); assay type: in vivo; details: Balb/c mice with CT26 tumors; Compound 1 at any dose level or schedule; FIG. 1A
Procedure: Efficacy Study Protocol: Mouse Colon Cancer Syngeneic Model
CT26 colon cancer cells (0.25×10^6; ATCC Cat # CRL-2638) were implanted subcutaneously into the right flank of eight-week old female Balb/c mice (Envigo) in 100 μL of PBS lacking matrigel. CT26 tumors were allowed to grow to an average of ˜100 mm^3 before animals were enrolled onto the efficacy study. Each treatment group contained 12 mice. Mice were treated with Compound 1, an anti-CTLA4 antibody (Bio X Cell Catalog Number: BE0164 (αCTLA4 9D9)), or a combination at doses and routes of administration as shown in FIG. 1. Compound 1 was formulated in a composition containing 5% ethanol and 95% methylcellulose solution (0.5% methylcellulose. The anti-CTLA4 antibody was formulated in phosphate buffer solution at pH 7.0. Tumors were measured 3 times per week for up to 19 days. Tumor volumes were calculated using the ellipsoid formula: Tumor Volume=(length×width^2)/2

SF3b1 mutant cell lines = details: previously shown, U.S. Pat. No. 9,481,669 B2 and PCT/US2016/062525, cited from earlier work
[1] = in vivo; cited from earlier work

## C/C(=C\C=C\[C@@H](C)c1ccccn1)[C@H]1OC(=O)C[C@H](O)CC[C@@](C)(O)[C@@H](OC(=O)N2CCN(C)CC2)/C=C/[C@@H]1C [Compound 1, (2S,3S,6S,7R,10R,E)-7,10-dihydroxy-3,7-dimethyl-12-oxo-2-((R,2E,4E)-6-(pyridin-2-yl)hepta-2,4-dien-2-yl)oxacyclododec-4-en-6-yl 4-methylpiperazine-1-carboxylate]
CT26 syngeneic tumors
  antitumor activity (growth curves compared to vehicle treated controls): did not result in noticeable antitumor activity
SF3b1 mutant cell lines; SF3b1 mutant cell lines
  cellular lethality: cellular lethality in SF3b1 mutant cell lines
SF3b1 mutant cell lines
  splicing modulator activity: demonstrate splicing modulator activity

## tremelimumab: fully human anti-CTLA4 antibody, an IgG2
[1]
  plasma half-life: approximately 22 days

## Ipilimumab: fully human anti-CTLA4 antibody, an IgG1
[1]
  plasma half-life: 12 to 14 days
